SMILES strings stand for the structures.

Results on five compounds are retold here after patent US12030884B2, “Pyrazoloquinoline KRAS inhibitors” (INCYTE CORPORATION, priority 2021, dated 2024).

Sequence of KRAS G12C (P01116 1-188 isoform P01116-2 G12C): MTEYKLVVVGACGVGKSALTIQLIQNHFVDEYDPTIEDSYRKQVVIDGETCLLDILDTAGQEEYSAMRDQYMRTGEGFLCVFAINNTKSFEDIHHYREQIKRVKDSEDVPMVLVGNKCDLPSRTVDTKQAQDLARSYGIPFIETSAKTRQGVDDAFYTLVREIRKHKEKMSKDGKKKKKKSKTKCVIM

The experiment concerns the target KRAS G12C (Homo sapiens, UniProt P01116, G12C). In words: GDP-GTP exchange assay (KRAS_G12C exchange assay). The following applies: bodipy-loaded KRAS G12C, SOS1, GppNHp; 2 hours pre-incubation with inhibitor; read-out: G12C_exchange. The format is biochemical. The protocol: The inhibitor potency of the exemplified compounds was determined in a fluorescence based guanine nucleotide exchange assay, which measures the exchange of bodipy-GDP (fluorescently labeled GDP) for GppNHp (Non-hydrolyzable GTP analog) to generate the active state of KRAS in the presence of SOS1 (guanine nucleotide exchange factor). Inhibitors were serially diluted in DMSO and a volume of 0.1 μL was transferred to the wells of a black low volume 384-well plate. 5 μL/well volume of bodipy-loaded KRAS G12C diluted to 5 nM in assay buffer (25 mM Hepes pH 7.5, 50 mM NaCl, 10 mM MgCl2 and 0.01% Brij-35) was added to the plate and pre-incubated with inhibitor for 2 hours at ambient temperature. Appropriate controls (enzyme with no inhibitor or with a G12C inhibitor (AMG-510)) were included on the plate. The exchange was initiated by the addition of a 5 μL/well volume containing 1 mM GppNHp and 300 nM SOS1 in assay buffer. The 10 μL/well reaction concentration of the bodipy-loaded KRAS G12C, GppNHp, and SOS1 were 2.5 nM, 500 uM, and 150 nM, respectively. The reaction plates were incubated at ambient temperature for 2 hours, a time estimated for complete GDP-GTP exchange in the absence of inhibitor. For the KRAS G12D and G12V mutants, similar guanine nucleotide exchange assays were used with 2.5 nM as final concentration for the bodipy loaded KRAS proteins and with 4 hours and 3 hours incubation after adding GppNHp-SOS1 mixture for G12D and G12V respectively. A cyclic peptide described to selectively bind G12D mutant (Sakamoto et al., BBRC 484.3 (2017), 605-611) or internal compounds with confirmed binding were used as positive controls in the assay plates. Fluorescence intensities were measured on a PheraStar plate reader instrument (BMG Labtech) with excitation at 485 nm and emission at 520 nm.
Either GraphPad prism or Genedata Screener SmartFit was used to analyze the data. The IC50 values were derived by fitting the data to a four parameter logistic equation producing a sigmoidal dose-response curve with a variable Hill coefficient.
Take `CC#CC(=O)N1CC[C@H](n2ncc3c(O[C@@H](C)[C@@H]4CCCN4C)nc4c(F)c(-c5nccc6cccc(C#N)c56)c(Cl)cc4c32)C[C@H]1CC#N` (single isomer, unassigned) [Example 1b]: the IC50 was at most 100 nM.
Take `C=C(F)C(=O)N1CC[C@H](n2ncc3c(O[C@@H](C)[C@@H]4CCCN4C)nc4c(F)c(-c5nccc6cccc(C#N)c56)c(Cl)cc4c32)C[C@H]1CC#N` (single isomer, unassigned) [Example 3b]: the IC50 is 100 to 1000 nM.
In the case of `C=C(F)C(=O)N1CC[C@H](n2ncc3c(N4CC(N(C)CC)C4)nc4c(F)c(-c5c(C)c(C)cc6[nH]ncc56)c(Cl)cc4c32)C[C@H]1CC#N` (single isomer, unassigned) [Example 4b] it was 1000 to 5000 nM; in that of `C=C(F)C(=O)N1CC[C@H](n2ncc3c(O[C@@H](C)[C@@H]4CCCN4C)nc4c(F)c(-c5cccc6cccc(C#N)c56)c(Cl)cc4c32)C[C@H]1CC#N` (single isomer, unassigned) [Example 5a], 100 to 1000 nM.
For `COC/C=C/C(=O)N1CC[C@H](n2ncc3c(O[C@@H](C)[C@@H]4CCCN4C)nc4c(F)c(-c5cccc6cccc(C#N)c56)c(Cl)cc4c32)C[C@H]1CC#N` [Example 6a, 8-(8-chloro-1-((2S,4S)-2-(cyanomethyl)-1-((E)-4-methoxybut-2-enoyl)piperidin-4-yl)-6-fluoro-4-((S)-1-((S)-1-methylpyrrolidin-2-yl)ethoxy)-1H-pyrazolo[4,3-c]quinolin-7-yl)-1-naphthonitrile] the value was at most 100 nM.
